Results on 14 compounds are retold here after PubChem BioAssay AID248 (DTP/NCI, 2004).

The test system of the assay is L1210 leukemia ip in BDF1 mice, survival T/C. Description: NCI In Vivo Anticancer Drug Screen. Data for tumor model L1210 Leukemia (intraperitoneal) in B6D2F1 (BDF1) mice. The conditions noted are these: endpoint: mean survival time, higher = longer survival. In outline: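 Value reflects the ratio of survival in compound-treated mice to survival in vehicle-treated controls, with both groups carrying the same transplanted tumor.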

Setting [1] is: dose: 100.0 mg/kg/injection, schedule: Q01DX001 (ip), vehicle: saline.
Where [2] appears, read: dose: 200.0 mg/kg/injection, schedule: Q01DX001 (ip), vehicle: saline.
The mark [3] stands for this setting: dose: 100.0 mg/kg/injection, schedule: Q01DX001 (ip), vehicle: saline with Tween-80.
Setting [4] is: dose: 100.0 mg/kg/injection, schedule: Q04DX003 (ip), vehicle: saline.
Where [5] appears, read: dose: 200.0 mg/kg/injection, schedule: Q01DX001 (ip), vehicle: saline with Tween-80.
Setting [6] is: dose: 100.0 mg/kg/injection, schedule: Q04DX003 (ip), vehicle: saline with Tween-80.
[7] abbreviates: dose: 200.0 mg/kg/injection, schedule: Q04DX003 (ip), vehicle: saline with Tween-80.
The mark [8] stands for this setting: dose: 400.0 mg/kg/injection, schedule: Q04DX003 (ip), vehicle: saline with Tween-80.
[9] abbreviates: dose: 100.0 mg/kg/injection, schedule: Q01DX009 (ip), vehicle: saline.
[10] abbreviates: dose: 100.0 mg/kg/injection, schedule: Q01DX001 (ip), vehicle: other.
[11] abbreviates: dose: 200.0 mg/kg/injection, schedule: Q01DX001 (ip), vehicle: other.
Setting [12] is: dose: 200.0 mg/kg/injection, schedule: Q04DX003 (ip), vehicle: saline.
[13] abbreviates: dose: 400.0 mg/kg/injection, schedule: Q04DX003 (ip), vehicle: saline.

Each structure is given as a SMILES string. Several values for one entry are separate records, joined by “and”; a condition that tells them apart may be missing. Equal entries are not always repeated. Inconclusive results and toxic doses are left out.

With `N#CC(Cc1ccccc1)c1ccccc1` (stereo not given), the T/C was 97 % of control (dose: 50.0 mg/kg/injection, schedule: Q01DX001 (ip), vehicle: saline); 106 % of control under setting [1]; 101 % of control under setting [2].
With `CCC1C(=O)OCc2c1c(Br)cn(C)c2=O` (stereo not given), the T/C is, setting by setting: (dose: 12.5 mg/kg/injection, schedule: Q04DX003 (ip), vehicle: saline) 98 % of control; (dose: 12.5 mg/kg/injection, schedule: Q04DX003 (oral), vehicle: saline with Tween-80) 100 % of control; (dose: 25.0 mg/kg/injection, schedule: Q01DX001 (ip), vehicle: saline with Tween-80) 101 % of control; (dose: 25.0 mg/kg/injection, schedule: Q04DX003 (ip), vehicle: saline) 97 % of control; (dose: 25.0 mg/kg/injection, schedule: Q04DX003 (oral), vehicle: saline with Tween-80) 100 % of control; (dose: 50.0 mg/kg/injection, schedule: Q01DX001 (ip), vehicle: saline with Tween-80) 93 % of control. For the same compound, the T/C is 108 % of control (dose: 50.0 mg/kg/injection, schedule: Q04DX003 (ip), vehicle: saline); 104 % of control (dose: 50.0 mg/kg/injection, schedule: Q04DX003 (oral), vehicle: saline with Tween-80); 97 % of control under setting [3]; 93 % of control under setting [4]; 96 % of control (dose: 100.0 mg/kg/injection, schedule: Q04DX003 (oral), vehicle: saline with Tween-80); 101 % of control under setting [5].
On to `O=NN(CCF)C(=O)NC1CC2CCC1C2` (stereo not given), for which the T/C (dose: 3.12 mg/kg/injection, schedule: Q01DX001 (ip), vehicle: other) is 108 % of control; the T/C (dose: 5.7 mg/kg/injection, schedule: Q01DX001 (ip), vehicle: other) is 104 % of control; the T/C (dose: 6.25 mg/kg/injection, schedule: Q01DX001 (ip), vehicle: other) was 118 % of control; the T/C (dose: 12.5 mg/kg/injection, schedule: Q01DX001 (ip), vehicle: other) is 150 % of control; the T/C (dose: 23.0 mg/kg/injection, schedule: Q01DX001 (ip), vehicle: other) was 180 % of control; the T/C (dose: 25.0 mg/kg/injection, schedule: Q01DX001 (ip), vehicle: other) was 180 % of control. Besides, the T/C by setting is: (dose: 37.0 mg/kg/injection, schedule: Q01DX001 (ip), vehicle: other) 308 % of control; (dose: 37.5 mg/kg/injection, schedule: Q01DX001 (ip), vehicle: other) 361 % of control; (dose: 46.0 mg/kg/injection, schedule: Q01DX001 (ip), vehicle: other) 310 % of control; (dose: 56.0 mg/kg/injection, schedule: Q01DX001 (ip), vehicle: other) 348 % of control.
For the compound `CN(C(=O)c1cccnc1)c1ccccc1`, the T/C is, setting by setting: under setting [6], 94 % of control; under setting [7], 96 % of control; under setting [8], 107 % of control.
`Cc1cc(NC(=O)Nc2ccc(C3=NCCCN3)cc2)ccc1NC(=O)Nc1ccc(C2=NCCCN2)cc1`: the T/C was 113 % of control (dose: 3.0 mg/kg/injection, schedule: Q01DX Z (ip), vehicle: water); 119 % of control (dose: 4.5 mg/kg/injection, schedule: Q01DX Z (ip), vehicle: water); 109 % of control (dose: 6.0 mg/kg/injection, schedule: Q01DX Z (ip), vehicle: water); 167 % of control (dose: 7.5 mg/kg/injection, schedule: Q01DX Z (ip), vehicle: water); 220 % of control (dose: 10.0 mg/kg/injection, schedule: Q01DX Z (ip), vehicle: water); 109 % of control (dose: 25.0 mg/kg/injection, schedule: Q01DX Z (oral), vehicle: water). Further, the T/C is 103 % of control (dose: 50.0 mg/kg/injection, schedule: Q01DX Z (oral), vehicle: water); 163 % of control under setting [9]; 105 % of control (dose: 100.0 mg/kg/injection, schedule: Q01DX Z (oral), vehicle: water); 109 % of control (dose: 200.0 mg/kg/injection, schedule: Q01DX Z (oral), vehicle: water).
In the case of `CC(=O)CC(=O)Nc1ccc(NC(C)=O)cc1`, the T/C reads like this: under setting [1], 96 % of control; under setting [2], 100 % of control; (dose: 400.0 mg/kg/injection, schedule: Q01DX001 (ip), vehicle: saline) 105 % of control.
In the case of `O=c1ccc2ccccc2o1`, the T/C is 114 % of control (dose: 45.0 mg/kg/injection, schedule: Q01DX Z (ip), vehicle: carboxymethylcellulose (CMC)); 94 % of control (dose: 65.0 mg/kg/injection, schedule: Q01DX Z (ip), vehicle: carboxymethylcellulose (CMC)); 102 % of control (dose: 95.0 mg/kg/injection, schedule: Q01DX Z (ip), vehicle: carboxymethylcellulose (CMC)); 100 % of control under setting [10]; 102 % of control and 105 % of control (dose: 110.0 mg/kg/injection, schedule: Q01DX Z (ip), vehicle: carboxymethylcellulose (CMC)); 97 % of control (dose: 165.0 mg/kg/injection, schedule: Q01DX Z (ip), vehicle: carboxymethylcellulose (CMC)). Also, the T/C under setting [11] is 105 % of control.
In the case of `OC1OCC(Cc2ccc3c(c2)OCO3)C1Cc1ccc2c(c1)OCO2` (stereo not given), the T/C by setting is: under setting [9], 91 % of control; (dose: 200.0 mg/kg/injection, schedule: Q01DX009 (ip), vehicle: saline) 99 % of control; (dose: 400.0 mg/kg/injection, schedule: Q01DX009 (ip), vehicle: saline) 88 % of control.
Regarding `C1OCC2(CO1)COCOC2`, the T/C runs as follows: (dose: 50.0 mg/kg/injection, schedule: Q01DX009 (ip), vehicle: acetone) 95 % of control; (dose: 100.0 mg/kg/injection, schedule: Q01DX009 (ip), vehicle: acetone) 91 % of control; under setting [4], 95 % of control; (dose: 200.0 mg/kg/injection, schedule: Q01DX009 (ip), vehicle: acetone) 93 % of control; under setting [12], 103 % of control; under setting [13], 105 % of control.
On to `COc1cc2ccncc2cc1Oc1ccc(C)cc1`, for which the T/C (dose: 50.0 mg/kg/injection, schedule: Q01DX001 (ip), vehicle: other) is 97 % of control; the T/C under setting [10] was 104 % of control; the T/C under setting [11] is 97 % of control.
`Cc1ccc(N=Nc2c(N)ccc3ccccc23)cc1`: the T/C reads like this: under setting [10], 100 % of control; under setting [11], 100 % of control.
Turning to `CCCCCCCCCCCCCC(O)CC(=O)O` (stereo not given), the T/C is 91 % of control (dose: 100.0 mg/kg/injection, schedule: Q04DX002 (ip), vehicle: Klucel (hydroxypropylcellulose) (HPC)); 91 % of control (dose: 200.0 mg/kg/injection, schedule: Q04DX002 (ip), vehicle: Klucel (hydroxypropylcellulose) (HPC)); 104 % of control (dose: 400.0 mg/kg/injection, schedule: Q04DX002 (ip), vehicle: Klucel (hydroxypropylcellulose) (HPC)).
Turning to `CCCCCCCCCCCCN1CCCN(CCCCCCCCCCCC)CC1`, the T/C is, setting by setting: under setting [3], 100 % of control; (dose: 100.0 mg/kg/injection, schedule: Q04DX002 (ip), vehicle: saline with Tween-80) 97 % of control and 106 % of control; under setting [6], 94 % of control and 90 % of control; under setting [5], 98 % of control; (dose: 200.0 mg/kg/injection, schedule: Q04DX002 (ip), vehicle: saline with Tween-80) 97 % of control and 106 % of control; under setting [7], 103 % of control and 87 % of control. The T/C is, setting by setting: (dose: 400.0 mg/kg/injection, schedule: Q01DX001 (ip), vehicle: saline with Tween-80) 107 % of control; (dose: 400.0 mg/kg/injection, schedule: Q04DX002 (ip), vehicle: saline with Tween-80) 101 % of control and 92 % of control; under setting [8], 90 % of control.
Turning to `CCCCCCC(=O)CCCC`, the T/C is 102 % of control (dose: 100.0 mg/kg/injection, schedule: Q01DX009 (ip), vehicle: saline with Tween-80); 98 % of control under setting [4]; 111 % of control (dose: 200.0 mg/kg/injection, schedule: Q01DX009 (ip), vehicle: saline with Tween-80); 88 % of control under setting [12]; 98 % of control (dose: 400.0 mg/kg/injection, schedule: Q01DX009 (ip), vehicle: saline with Tween-80); 94 % of control under setting [13].
